Tests used:
mGlu7 receptor [1] = biological target: T1, mGlu7 receptor (Homo sapiens, UniProt Q14831); assay: HTRF cAMP assay: antagonism of L-Glu (EC80) inhibition of forskolin-stimulated cAMP accumulation (NAM profile); format: cell-based; details: HEK 293 T-REx cells expressing mGlu7; 6.26 mM L-Glu (EC80); 5 μM forskolin; n = 3; read-out: IC50, antagonism of L-Glu inhibition of cAMP accumulation in the presence of forskolin
T1 construct: expressed in transfected cells
Experimental: (§1) A homogeneous time-resolved fluorescence (HTRF) cAMP dynamic 2 (Cisbio, Codolet, France) assay was performed as previously described ([Chruścicka et al., 2015]) with recombinant cell lines. Briefly, HEK 293 T-REx cells stably expressing mGlu7 receptor, were collected and suspended in Hanks-HEPES buffer. The cell suspension was added to compounds solution with 5 μM of forskolin (final concentration). After 5 min incubation in 37°C, 5 μl of cAMP-d2 conjugate in lysis buffer was added and mixed with the 10 μl cell suspension by means of an automated pipetting system (Tecan Evo 200, Tecan, Mannedorf, Switzerland). Next, 5 μl anti-cAMP cryptate conjugate was added and the fluorescence at 620 and 665 nm was read after 1 h (Tecan Infinite M1000). The results are shown as the 665 nm/620 nm ratio multiplied by 10^4. The detected signal was inversely proportional to the concentration of cAMP in the sample. […] Each experiment was performed three times (n = 3), and each data point was in triplicate.

mGlu7 receptor [2] = biological target: T1, mGlu7 receptor; assay: HTRF cAMP assay: potentiation of forskolin action without agonist (inverse agonist properties); format: cell-based; details: T-REx 293 cells, 5 μM forskolin, n = 3, read-out: IC50, potentiation of forskolin action (elevating cAMP concentration), inverse agonist properties
Experimental: as §1
Both compounds dose-dependently potentiated forskolin action, elevating cAMP concentration in the T-REx 293 cells (Figure 2B). […] This effect was not observed for an antagonist of mGluR7 – XAP044.

Cytochrome P450 1A2 = biological target: T2, Cytochrome P450 1A2 (Homo sapiens, UniProt P05177); assay: Cytochrome P450 inhibition, 1A2; format: in vitro ADME
T2 sequence (P05177 1-516): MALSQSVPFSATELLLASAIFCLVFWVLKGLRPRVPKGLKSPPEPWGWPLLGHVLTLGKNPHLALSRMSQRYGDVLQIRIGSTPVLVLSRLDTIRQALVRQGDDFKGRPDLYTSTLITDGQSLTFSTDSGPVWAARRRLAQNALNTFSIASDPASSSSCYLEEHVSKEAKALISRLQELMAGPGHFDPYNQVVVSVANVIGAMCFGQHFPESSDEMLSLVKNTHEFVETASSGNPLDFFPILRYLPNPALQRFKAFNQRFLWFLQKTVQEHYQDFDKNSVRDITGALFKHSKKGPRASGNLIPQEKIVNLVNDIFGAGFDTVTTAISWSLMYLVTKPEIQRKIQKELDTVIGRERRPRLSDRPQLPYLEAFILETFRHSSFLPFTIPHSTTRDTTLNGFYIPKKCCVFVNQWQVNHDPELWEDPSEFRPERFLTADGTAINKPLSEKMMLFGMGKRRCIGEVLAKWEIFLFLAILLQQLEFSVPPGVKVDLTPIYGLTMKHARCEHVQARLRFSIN

Cytochrome P450 2C9 = Cytochrome P450 2C9 (Homo sapiens, UniProt P11712); assay: Cytochrome P450 inhibition, 2C9; format: in vitro ADME
[3] = test system: field potentials in frontal cortical slices; assay: Electrophysiology: field potentials in frontal cortical slices, WILD mice; parameters: species or system C57BL/6J WT mice; details: for Before-after effect of the drug on FP amplitude: WILD group; for S (factor proportional to the slope of the curve) / Uh (stimulation intensity evoking FP of half-maximum amplitude) / Vmax (maximum FP amplitude, Boltzmann fit): slices from WILD mice, after 20 min drug superfusion
Text: (§2) Mice (wild and KO, approx. 25 g) were housed under a controlled light/dark cycle (light on: 0700–1900) and had free access to standard food and tap water. Mice were anesthetized with isoflurane (Aerrane, Baxter) decapitated, their brains were dissected and immersed in an ice-cold artificial cerebrospinal fluid (ACSF) of the following composition (in mM): NaCl (130), KCl (5), CaCl2 (2.5), MgSO4 (1.3), KH2PO4 (1.25), NaHCO3 (26), and glucose (10), bubbled with a mixture of 95% O2/5% CO2 to pH 7.4. Frontal cortical slices (bregma 1.9–1.4, 380 μm) were cut in a coronal plane using a vibrating microtome and they were stored at 32°C. A single slice was next transferred to the recording chamber (32°C ± 0.5°C) and superfused at 2.5 ml/min with a ACSF.
(§3) A bipolar stimulating electrode (FHC) was placed approx. 2 mm lateral to the midline and approx. 1.0 mm below the pial surface (in layer V) (Figure 1). Stimuli (duration: 0.2 ms) were applied at 0.033 Hz using a constant-current stimulus isolation unit (WPI). Field potentials (FPs) were recorded using glass micropipettes filled with ACSF (1–3 MΩ), which were placed approx. 0.2 mm below the cortical surface (in layer II/III). FPs were amplified (Axoprobe 1A, Axon Instruments), A/D converted at 10 kHz and stored using Micro1401 interface and Signal 4 software (CED).
(§4) The stimulus–response curves obtained for each slice were fit with the Boltzmann equation: Vi = Vmax/(1 + exp[(u - Uh)/-S]), where Vmax is the maximum FP amplitude; u is the stimulation intensity; Uh is the stimulation intensity evoking FP of half-maximum amplitude; S is the factor proportional to the slope of the curve; “exp” is exponentiation – mathematical operation. The results are expressed as the means ± SEM. Statistical analyses were carried out using t-test ([Tokarski et al., 2011]).
(§5) For each slice, at the beginning of the experiment an input-output curve was generated in ACSF. A stimulus-response (input-output) curve was made for each slice. […] One response was recorded at each stimulation intensity. […] Statistical analyzes were carried out using paired t-test and ANOVA.

[4] = test system: field potentials in frontal cortical slices; assay: Electrophysiology: field potentials in frontal cortical slices, mGlu7 KO mice; details: for Before-after effect of the drug on FP amplitude: KO animals; for S (factor proportional to the slope of the curve) / Uh (stimulation intensity evoking FP of half-maximum amplitude) / Vmax (maximum FP amplitude, Boltzmann fit): slices from mGlu7 KO mice, after 20 min drug superfusion
Text: as §2, §3, §4, §5

T1 sequence (Q14831 35-915): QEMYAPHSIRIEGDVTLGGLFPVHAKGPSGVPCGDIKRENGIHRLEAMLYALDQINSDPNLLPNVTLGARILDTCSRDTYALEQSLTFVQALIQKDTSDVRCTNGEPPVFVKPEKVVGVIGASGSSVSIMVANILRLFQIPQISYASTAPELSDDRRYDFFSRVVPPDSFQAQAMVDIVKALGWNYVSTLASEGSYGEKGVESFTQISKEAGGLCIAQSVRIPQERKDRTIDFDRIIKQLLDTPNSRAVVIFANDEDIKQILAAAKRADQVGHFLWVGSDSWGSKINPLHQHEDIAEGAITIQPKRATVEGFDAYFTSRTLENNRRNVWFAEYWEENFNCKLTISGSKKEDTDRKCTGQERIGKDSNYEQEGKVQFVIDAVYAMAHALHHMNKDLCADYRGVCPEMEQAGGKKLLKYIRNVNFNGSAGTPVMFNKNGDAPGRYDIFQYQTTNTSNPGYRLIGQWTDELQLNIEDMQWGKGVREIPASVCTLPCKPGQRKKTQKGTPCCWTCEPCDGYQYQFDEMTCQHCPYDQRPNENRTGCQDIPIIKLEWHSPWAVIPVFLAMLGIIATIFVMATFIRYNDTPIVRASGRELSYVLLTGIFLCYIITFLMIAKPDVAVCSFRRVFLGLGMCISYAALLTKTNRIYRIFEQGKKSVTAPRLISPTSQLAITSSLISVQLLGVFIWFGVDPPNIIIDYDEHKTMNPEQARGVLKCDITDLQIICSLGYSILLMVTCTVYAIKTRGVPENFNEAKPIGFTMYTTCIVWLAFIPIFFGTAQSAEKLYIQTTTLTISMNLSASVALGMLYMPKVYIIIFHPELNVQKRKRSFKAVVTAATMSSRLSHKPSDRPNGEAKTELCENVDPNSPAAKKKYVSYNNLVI
Cytochrome P450 2C9, sequence (P11712 whole entry, the tested form may be a part): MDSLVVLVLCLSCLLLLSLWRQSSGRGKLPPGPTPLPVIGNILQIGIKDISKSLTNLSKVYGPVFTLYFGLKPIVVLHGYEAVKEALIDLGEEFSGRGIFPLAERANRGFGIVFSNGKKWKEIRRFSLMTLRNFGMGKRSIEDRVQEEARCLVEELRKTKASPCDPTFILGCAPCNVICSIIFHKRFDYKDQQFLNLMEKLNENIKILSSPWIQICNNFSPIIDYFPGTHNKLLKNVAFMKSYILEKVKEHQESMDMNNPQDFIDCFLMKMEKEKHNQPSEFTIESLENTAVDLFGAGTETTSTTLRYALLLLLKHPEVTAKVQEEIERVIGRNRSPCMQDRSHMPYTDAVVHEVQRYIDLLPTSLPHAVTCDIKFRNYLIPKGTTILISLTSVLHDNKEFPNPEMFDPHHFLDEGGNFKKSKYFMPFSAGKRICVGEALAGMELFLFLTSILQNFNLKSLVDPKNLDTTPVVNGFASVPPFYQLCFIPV

| Structure (SMILES) | IC50 (mGlu7 receptor [1]) | IC50 (mGlu7 receptor [2]) | IC50 (Cytochrome P450 1A2) | IC50 (Cytochrome P450 2C9) | Before-after effect of the drug on FP amplitude [3] | S (factor proportional to the slope of the curve) [3] | Uh (stimulation intensity evoking FP of half-maximum amplitude) [3] | Vmax (maximum FP amplitude, Boltzmann fit) [3] | Before-after effect of the drug on FP amplitude [4] | S (factor proportional to the slope of the curve) [4] | Uh (stimulation intensity evoking FP of half-maximum amplitude) [4] | Vmax (maximum FP amplitude, Boltzmann fit) [4] | Before-after effect, WILD group higher than KO animals ([3]; WILD vs. KO) |
| --- | --- | --- | --- | --- | --- | --- | --- | --- | --- | --- | --- | --- | --- |
| CCc1nc2c(o1)CC(c1ccc(C)cc1C)CC2=O (stereo not shown) [ADX71743, 6-(2,4-Dimethylphenyl)-2-ethyl-6,7-dihydro-4(5H)-benzoxazolone] | 0.44 µM | 0.22 µM | > 10 µM | > 10 µM | 116% | 6.53 ± 0.3 | 26.07 ± 1.3 | 2.531 ± 0.1^∗∗∗ | 106% | 7.12 ± 0.41 | 26.06 ± 1.18 | 2.36 ± 0.18 |  |
| COc1ccc(-c2cc3onc(-c4ccncc4)c3c(=O)n2C)cc1 [MMPIP, 6-(4-Methoxyphenyl)-5-methyl-3-(4-pyridinyl)-isoxazolo(4,5-c)pyridin-4(5H)-one] | 0.38 µM | 0.34 µM | > 10 µM | > 10 µM | 123% | 9.37 ± 0.83 | 26.93 ± 1.6 | 2.53 ± 0.3^∗∗∗ | 100,1% | 8.6 ± 1.01 | 22.1 ± 1.4 | 2.16 ± 0.2 | about 23% |

Source: PMC6158327, “Negative Allosteric Modulators of mGlu7 Receptor as Putative Antipsychotic Drugs” (Frontiers in Molecular Neuroscience, 2018)
